# Measurements as given in publication PMC10489750, “Exploration of Baicalein-Core Derivatives as Potent Antifungal Agents: SAR and Mechanism Insights” (Molecules, 2023).
# Target: T1, Eno1 (Candida albicans, UniProt P30575)
# T1 sequence (P30575 1-440): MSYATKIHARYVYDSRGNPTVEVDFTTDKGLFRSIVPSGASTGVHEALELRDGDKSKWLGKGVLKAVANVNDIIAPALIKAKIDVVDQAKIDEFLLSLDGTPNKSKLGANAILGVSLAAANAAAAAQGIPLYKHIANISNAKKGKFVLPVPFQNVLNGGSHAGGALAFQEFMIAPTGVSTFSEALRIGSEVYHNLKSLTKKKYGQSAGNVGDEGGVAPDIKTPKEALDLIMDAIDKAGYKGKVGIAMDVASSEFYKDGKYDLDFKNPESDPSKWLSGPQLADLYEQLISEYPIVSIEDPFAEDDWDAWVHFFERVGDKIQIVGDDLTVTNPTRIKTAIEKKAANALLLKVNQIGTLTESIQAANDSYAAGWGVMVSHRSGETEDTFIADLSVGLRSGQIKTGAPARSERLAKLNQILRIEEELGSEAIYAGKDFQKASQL
# Assay: in vitro enolase assay, […] compound, absorbance at […] nm, […] Eno1
# Format: biochemical
compound,measurement,value
"Nc1ccc(-c2cc(=O)c3c(O)c(O)c(O)cc3o2)cc1 [B5, 2-(4-aminophenyl)-5,6,7-trihydroxy-4H-chromen-4-one]","in vitro enolase assay, 200 μM compound, absorbance at 240 nm, 30 nM Eno1","B5 exhibited some inhibitory ability in in vitro enzyme inhibition assay, although it was weaker than BE"
